{
  "source": "paper PMC10518255",
  "about": "“A first-in-class pan-lysyl oxidase inhibitor impairs stromal remodeling and enhances gemcitabine response and survival in pancreatic cancer” (Nature Cancer, 2023)",
  "key": {"KPC CCs": {"system": "KPC CCs", "assay": "3D cell viability assay (MTS, collagen)", "format": "cell-based, mouse", "settings": "for 3D cell viability (MTS assay): KPC CC, replicates", "method": "(§1) The 3D cell viability assays were performed using cells embedded into polymerized collagen at 2.5 mg ml^−1. KPC CAFs and CCs were seeded at 10,000 cells per well in a 96-well plate. MTS solution (Promega) was added to the cells at a 1:20 dilution and cells were incubated at 37 °C for 1.5 h. Cell proliferation rates were measured by detecting the absorbance at 490 nm using a microplate reader and three biological repeats were performed.\n(§2) Data presented as mean values +/− SD. f. […] Data presented as mean values +/− SD. […] Data presented as mean values +/− SD. […] Data presented as mean values +/− SD. Ordinary one-way ANOVA for multiple comparison test performed. Source data"}, "[1]": {"assay": "3D cell viability assay (MTS, collagen)", "format": "cell-based, mouse", "settings": "mouse, replicates", "method": "as §1, §2"}, "KPC CAFs": {"system": "KPC CAFs", "assay": "3D cell viability assay (MTS, collagen)", "format": "cell-based, mouse", "settings": "for 3D cell viability (MTS assay): replicates", "method": "as §1, §2"}, "[2]": {"assay": "Plasma concentration profile after oral PXS-5505 30 mg/kg (Extended Data Fig. 3f)", "format": "in vivo, mice", "settings": "for Plasma concentration: mice, individual replicates"}, "[3]": {"system": "human pancreatic cancer CAF remodeled organotypic matrices", "assay": "Matrix stiffness by unconfined compression testing of organotypic matrices", "format": "cell-based", "settings": "human pancreatic cancer CAFs, PXS-5505 during remodeling", "method": "Unconfined compression of 3D organotypic collagen matrices treated with or without PXS-5505 was performed on a TA Instruments Dynamic Hybrid Rheometer (DHR-3, TA Instruments). Remodeled collagen matrices were placed between upper and lower parallel plate geometries. A constant linear compressive rate of 5 µm s^−1 was applied to the samples and axial force (N) and gap (mm) were collected every 0.01 s. Data were processed and a stress–strain curve for each replicate was obtained. Bulk elastic modulus (kPa) was obtained as the gradient of the linear region of the stress–strain curve corrected for cross-sectional area of sample and normalized to control. Data points represent biological replicates. […]\nExtended Data Fig. 4 PXS-5505 inhibits collagen cross-linking by PDAC CAFs in vitro resulting in decreased cancer cell invasion. a. […] Chemical structures of lysyl oxidase family catalyzed hydroxyallysine or allysine residues and the subsequent divalent and trivalent bonds that are formed that can be quantified by mass spectrometry. c. […] Relative fold expression of LOXL family members compared to LOX were determined by 2^–∆∆Ct approach. f. […] Comparison of measured area of matrices between control, PXS-5120 and PXS-5505 treatment groups (n = 3) over time. i. […] Representative images of invasion of KPC cancer cells into a contracted organotypic matrix as determined by H&E staining. […]"}, "Plasma stability": {"assay": "Plasma stability", "format": "in vitro ADME", "settings": "In vitro (human)"}},
  "note": "Several values for one entry are separate records, joined by “and”; a condition that tells them apart may be missing. Identical values can stand only once.",
  "data": [
    {"smiles": "Cl.Cl.NC/C=C(\\F)CS(=O)(=O)c1cccc2cccnc12.O", "note": "[PXS-5505, (Z)-3-fluoro-4-(quinolin-8-ylsulfonyl)but-2-en-1-amine dihydrochloride monohydrate]", "values": [
      {"measurement": "3D cell viability (MTS assay)", "setting": "KPC CCs; PXS-5505 0.3 (unit not given)", "result": "101.864 and 94.0126"},
      {"measurement": "3D cell viability (MTS assay)", "setting": "KPC CCs; PXS-5505 3 (unit not given)", "result": "104.713 and 92.4708"},
      {"measurement": "3D cell viability (MTS assay)", "setting": "KPC CCs; PXS-5505 30 (unit not given)", "result": "96.3592 and 91.3434"},
      {"measurement": "3D cell viability (MTS assay)", "setting": "KPC CCs; PXS-5505 100 (unit not given)", "result": "92.997 and 88.536"},
      {"measurement": "3D cell viability (MTS assay)", "setting": "KPC CCs; PXS-5505 300 (unit not given)", "result": "102.736 and 92.2188 and 80.3582"},
      {"measurement": "effect on proliferation, 3D", "setting": "KPC CCs; KPC CCs, up to 300 µM", "result": "nor did it show any effect on proliferation"},
      {"measurement": "viability", "setting": "[1]; KPC CAFs embedded in polymerized collagen (3D), PXS-5505 3 (unit inferred)", "result": 97.2, "unit": "%"},
      {"measurement": "viability", "setting": "[1]; KPC CAFs embedded in polymerized collagen (3D), PXS-5505 30 (unit inferred)", "result": 87.5, "unit": "%"},
      {"measurement": "viability", "setting": "[1]; KPC CAFs embedded in polymerized collagen (3D), PXS-5505 100 (unit inferred)", "result": 99, "unit": "%"},
      {"measurement": "viability", "setting": "[1]; KPC cancer cells (CCs) embedded in polymerized collagen (3D), KPC CC, PXS-5505 0.3 (unit inferred)", "result": 97.5, "unit": "%"},
      {"measurement": "viability", "setting": "[1]; KPC cancer cells (CCs) embedded in polymerized collagen (3D), KPC CC, PXS-5505 3 (unit inferred)", "result": 108, "unit": "%"},
      {"measurement": "viability", "setting": "[1]; KPC cancer cells (CCs) embedded in polymerized collagen (3D), KPC CC, PXS-5505 30 (unit inferred)", "result": 100, "unit": "%"},
      {"measurement": "viability", "setting": "[1]; KPC cancer cells (CCs) embedded in polymerized collagen (3D), KPC CC, PXS-5505 100 (unit inferred)", "result": 96.7, "unit": "%"},
      {"measurement": "3D cell viability (MTS assay)", "setting": "KPC CAFs; PXS-5505 0.3 (unit not given)", "result": "102.654 and 114.604 and 89.88"},
      {"measurement": "3D cell viability (MTS assay)", "setting": "KPC CAFs; PXS-5505 3 (unit not given)", "result": "96.8872 and 86.2796"},
      {"measurement": "3D cell viability (MTS assay)", "setting": "KPC CAFs; PXS-5505 30 (unit not given)", "result": "93.0804 and 86.6488"},
      {"measurement": "3D cell viability (MTS assay)", "setting": "KPC CAFs; PXS-5505 100 (unit not given)", "result": "93.525 and 85.922"},
      {"measurement": "3D cell viability (MTS assay)", "setting": "KPC CAFs; PXS-5505 300 (unit not given)", "result": "102.9 and 101.619 and 82.2294"},
      {"measurement": "effect on proliferation, 3D", "setting": "KPC CAFs; up to 300 µM", "result": "nor did it show any effect on proliferation"},
      {"measurement": "Plasma concentration", "setting": "[2]; oral 5 mg/kg, time 0.5 hrs, 5 mg/kg", "result": "424 and 270.3 and 246.9"},
      {"measurement": "Plasma concentration", "setting": "[2]; oral 5 mg/kg, time 1 hrs, 5 mg/kg", "result": "183.1 and 190 and 142.6"},
      {"measurement": "Plasma concentration", "setting": "[2]; oral 5 mg/kg, time 2 hrs, 5 mg/kg", "result": "40.1 and 93 and 39.5"},
      {"measurement": "Plasma concentration", "setting": "[2]; oral 5 mg/kg, time 4 hrs, 5 mg/kg", "result": "10.2 and 13.8 and 3.1"},
      {"measurement": "Plasma concentration", "setting": "[2]; oral 5 mg/kg, time 8 hrs, 5 mg/kg", "result": "3.2 and 2.1 and 1.3"},
      {"measurement": "Plasma concentration", "setting": "[2]; oral 10 mg/kg, time 0.5 hrs, 10 mg/kg", "result": "1283.4 and 374.2 and 656.3"},
      {"measurement": "Plasma concentration", "setting": "[2]; oral 10 mg/kg, time 1 hrs, 10 mg/kg", "result": "814.4 and 337 and 493.5"},
      {"measurement": "Plasma concentration", "setting": "[2]; oral 10 mg/kg, time 2 hrs, 10 mg/kg", "result": "138.5 and 336.7 and 262.8"},
      {"measurement": "Plasma concentration", "setting": "[2]; oral 10 mg/kg, time 4 hrs, 10 mg/kg", "result": "113.3 and 25.7 and 30.1"},
      {"measurement": "Plasma concentration", "setting": "[2]; oral 10 mg/kg, time 8 hrs, 10 mg/kg", "result": "14.4 and 5.9 and 4.9"},
      {"measurement": "Plasma concentration", "setting": "[2]; oral 30 mg/kg, time 0.5 hrs, 30 mg/kg", "result": "3584.3 and 3445.6 and 4112.8"},
      {"measurement": "Plasma concentration", "setting": "[2]; oral 30 mg/kg, time 1 hrs, 30 mg/kg", "result": "3340.5 and 2725.9 and 2974.4"},
      {"measurement": "Plasma concentration", "setting": "[2]; oral 30 mg/kg, time 2 hrs, 30 mg/kg", "result": "1379.4 and 1690.4 and 1354.7"},
      {"measurement": "Plasma concentration", "setting": "[2]; oral 30 mg/kg, time 4 hrs, 30 mg/kg", "result": "160.9 and 186.3 and 206.9"},
      {"measurement": "Plasma concentration", "setting": "[2]; oral 30 mg/kg, time 8 hrs, 30 mg/kg", "result": "13.1 and 14.5 and 13.6"},
      {"measurement": "half-life", "setting": "[2]; mouse, plasma, single oral dose 30 mg kg−1, read-out: calculated half-life (plasma) (converted)", "result": 1, "unit": "h"},
      {"measurement": "stiffness (bulk modulus) of remodeled organotypic matrices", "setting": "[3]", "result": "decrease in stiffness (bulk modulus)"},
      {"measurement": "remaining at 1 h", "setting": "Plasma stability", "result": 97, "unit": "%"}
    ]}
  ]
}
